Measured values: patent US9255090B2, “Heterocyclyl derivatives and their use as prostaglandin D2 receptor modulators” (Actelion Pharmaceuticals Ltd., priority 2012, dated 2016)

Target: hCRTH2 receptor (Homo sapiens (Human), UniProt Q9Y5Y4)
Test: hCRTH2 receptor membranes radioligand (3H-PGD2) displacement assay
Assay type: binding
Conditions: 3H-PGD2 radioligand displacement, HEK293-hCRTH2 membranes
Outline: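 HEK293-hCRTH2 membranes, 20 μg/well; 3H-PGD2 added at 2.5 nM; binding buffer 50 mM Tris, 10 mM MnCl2, 1 mM EDTA, pH 7.0; 90 min RT; GF/C filtration, scintillation count. Nonspecific binding: PGD2 at […].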

Chain of hCRTH2 receptor (Q9Y5Y4 whole entry): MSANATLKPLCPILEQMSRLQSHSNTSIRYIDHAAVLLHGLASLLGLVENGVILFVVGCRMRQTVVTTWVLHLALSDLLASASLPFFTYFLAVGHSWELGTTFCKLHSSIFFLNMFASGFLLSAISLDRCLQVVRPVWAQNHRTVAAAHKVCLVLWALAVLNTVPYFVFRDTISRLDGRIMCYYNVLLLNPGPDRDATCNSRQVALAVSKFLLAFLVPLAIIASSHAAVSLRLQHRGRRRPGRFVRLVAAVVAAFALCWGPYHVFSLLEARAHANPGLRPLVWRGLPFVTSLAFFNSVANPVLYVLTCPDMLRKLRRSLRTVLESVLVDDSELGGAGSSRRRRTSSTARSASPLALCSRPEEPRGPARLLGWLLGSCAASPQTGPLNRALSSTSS

IC50	SMILES
5.73 nM	COc1ccc(CC(=O)O)cc1-c1ccc(F)c2c1CN(C(=O)OCc1cnc(C)s1)CC2 [Example 151, 8-(5-Carboxymethyl-2-methoxy-phenyl)-5-fluoro-3,4-dihydro-1H-isoquinoline-2-carboxylic acid 2-methyl-thiazol-5-ylmethyl ester]
5.8 nM	CCOc1ccc(CC(=O)O)cc1-c1ccc(F)c2c1CN(C(=O)/C=C/c1cnn(C)c1)CC2 [Example 341, (4-Ethoxy-3-{5-fluoro-2-[(E)-3-(1-methyl-1H-pyrazol-4-yl)-acryloyl]-1,2,3,4-tetrahydro-isoquinolin-8-yl}-phenyl)-acetic acid]
93.8 nM	COc1ccc(CC(=O)O)cc1-c1ccc(F)c2c1CN(C(=O)/C=C/c1sc(C)nc1C)CC2 [Example 87, (3-{2-[(E)-3-(2,4-Dimethyl-thiazol-5-yl)-acryloyl]-5-fluoro-1,2,3,4-tetrahydro-isoquinolin-8-yl}-4-methoxy-phenyl)-acetic acid]
64.7 nM	COc1ccc(CC(=O)O)cc1-c1ccc(F)c2c1CCN(C(=O)CCc1ccccc1)C2 [Example 101, {3-[8-Fluoro-2-(3-phenyl-propionyl)-1,2,3,4-tetrahydro-isoquinolin-5-yl]-4-methoxy-phenyl}-acetic acid]
50.7 nM	COc1ccc(C2(C(=O)O)CC2)cc1-c1ccc(F)c2c1CN(C(=O)[C@@H]1C[C@H]1c1ccccc1)CC2 [Example 429, 1-{3-[5-Fluoro-2-((1R,2R)-2-phenyl-cyclopropanecarbonyl)-1,2,3,4-tetrahydro-isoquinolin-8-yl]-4-methoxy-phenyl}-cyclopropanecarboxylic acid]
11.7 nM	CCOc1cc(CC(=O)O)ccc1-c1ccc(F)c2c1CN(C(=O)CC(C)c1cccc(C)n1)CC2 (racemic) [Example 320]
9.14 nM	COc1ccc(CC(=O)O)cc1-c1ccc(F)c2c1CN(C(=O)/C=C/c1nc3ccccc3s1)CC2 [Example 88, {3-[2-((E)-3-Benzothiazol-2-yl-acryloyl)-5-fluoro-1,2,3,4-tetrahydro-isoquinolin-8-yl]-4-methoxy-phenyl}-acetic acid]
28.8 nM	C#CCCOC(=O)N1CCc2c(F)ccc(-c3cc(CC(=O)O)ccc3OCC)c2C1 [Example 381, 8-(5-Carboxymethyl-2-ethoxy-phenyl)-5-fluoro-3,4-dihydro-1H-isoquinoline-2-carboxylic acid but-3-ynyl ester]
208 nM	O=C(O)COc1ccc(Cl)c(-c2ccc(C(F)(F)F)c3c2CN(C(=O)OCc2ccccc2)CC3)c1 [Example 180, 8-(5-Carboxymethoxy-2-chloro-phenyl)-5-trifluoromethyl-3,4-dihydro-1H-isoquinoline-2-carboxylic acid benzyl ester]
141 nM	COc1ccc(CC(=O)O)cc1-c1ccc(F)c2c1CCN(C(=O)OCc1ccccc1)CC2 [Example 17, 6-(5-Carboxymethyl-2-methoxy-phenyl)-9-fluoro-1,2,4,5-tetrahydro-benzo[d]azepine-3-carboxylic acid benzyl ester]
176 nM	COc1ccc(CC(=O)O)cc1-c1ccc(F)c2c1CN(C(=O)CC1CCCCC1)CC2 [Example 127, {3-[2-(2-Cyclohexyl-acetyl)-5-fluoro-1,2,3,4-tetrahydro-isoquinolin-8-yl]-4-methoxy-phenyl}-acetic acid]

More lines, now with the values behind:

SMILES	IC50
CC(C)Oc1ccc(CC(=O)O)cc1-c1ccc(F)c2c1CN(C(=O)C[C@@H](C)c1ccccc1)CC2 [Example 292, {3-[5-Fluoro-2-((R)-3-phenyl-butyryl)-1,2,3,4-tetrahydro-isoquinolin-8-yl]-4-isopropoxy-phenyl}-acetic acid]	2.5 nM
COc1ccc(CC(=O)O)cc1-c1ccc(F)c2c1CN(C(=O)CC(C)c1ccncc1)CC2 (racemic) [Example 267, (±)-{3-[5-Fluoro-2-(3-pyridin-4-yl-butyryl)-1,2,3,4-tetrahydro-isoquinolin-8-yl]-4-methoxy-phenyl}-acetic acid formiate]	86.1 nM
COc1ccc(CC(=O)O)cc1-c1ccc(S(C)(=O)=O)c2c1CN(C(=O)OCc1ccccc1)CC2 [Example 25, 8-(5-Carboxymethyl-2-methoxy-phenyl)-5-methanesulfonyl-3,4-dihydro-1H-isoquinoline-2-carboxylic acid benzyl ester]	149 nM
CCOc1ccc(CC(=O)O)cc1-c1ccc(F)c2c1CN(C(=O)CC1CCc3ccccc31)CC2 (racemic) [Example 219]	9.1 nM
O=C(O)Cc1ccc(-c2ccc(F)c3c2CN(C(=O)CC2CCOc4ccccc42)CC3)c(OCC(F)(F)F)c1 (racemic) [Example 285]	3.5 nM
CCOc1cc(CC(=O)O)ccc1-c1ccc(F)c2c1CN(C(=O)CCc1ccc(F)cc1)CC2 [Example 315, (3-Ethoxy-4-{5-fluoro-2-[3-(4-fluoro-phenyl)-propionyl]-1,2,3,4-tetrahydro-isoquinolin-8-yl}-phenyl)-acetic acid]	5.1 nM
COc1cc(CC(=O)O)ccc1-c1ccc(F)c2c1CN(C(=O)CCc1c(C)[nH]c3ccccc13)CC2 [Example 186, (4-{5-Fluoro-2-[3-(2-methyl-1H-indol-3-yl)-propionyl]-1,2,3,4-tetrahydro-isoquinolin-8-yl}-3-methoxy-phenyl)-acetic acid]	2.66 nM
COc1ccc(CC(=O)O)cc1-c1ccc(F)c2c1CN(C(=O)C1CC(=O)c3ccccc31)CC2 (racemic) [Example 122, (±)-{3-[5-Fluoro-2-(3-oxo-indane-1-carbonyl)-1,2,3,4-tetrahydro-isoquinolin-8-yl]-4-methoxy-phenyl}-acetic acid]	862 nM
COc1ccc(CC(=O)O)cc1-c1ccc(Cl)c2c1CN(C(=O)CCc1ccccc1)CC2 [Example 76, {3-[5-Chloro-2-(3-phenyl-propionyl)-1,2,3,4-tetrahydro-isoquinolin-8-yl]-4-methoxy-phenyl}-acetic acid]	43.1 nM
CC(C)Oc1ccc(CC(=O)O)cc1-c1ccc(F)c2c1CN(C(=O)CC1COc3ccccc31)CC2 (racemic) [Example 298]	1.2 nM
COc1ccc(CC(=O)O)cc1-c1ccc(F)c2c1CN(C(=O)CCN1CCCc3ccccc31)CC2 [Example 53, {3-[2-(3-3,4-Dihydro-2H-quinolin-1-yl-propionyl)-5-fluoro-1,2,3,4-tetrahydro-isoquinolin-8-yl]-4-methoxy-phenyl}-acetic acid]	4.49 nM
COc1ccc(C(C)C(=O)O)cc1-c1ccc(F)c2c1CN(C(=O)OCc1ccccc1)CC2 (racemic) [Example 171, (±)-8-[5-(1-Carboxy-ethyl)-2-methoxy-phenyl]-5-fluoro-3,4-dihydro-1H-isoquinoline-2-carboxylic acid benzyl ester]	21.2 nM
O=C(O)COc1cccc(-c2ccc(F)c3c2CN(C(=O)OCc2ccccc2)CC3)c1 [Example 175, 8-(3-Carboxymethoxy-phenyl)-5-fluoro-3,4-dihydro-1H-isoquinoline-2-carboxylic acid benzyl ester]	117 nM
O=C(O)Cc1ccc(OCC(F)(F)F)c(-c2ccc(F)c3c2CN(C(=O)[C@@H]2C[C@H]2c2ccccc2)CC3)c1 [Example 426, [3-[5-Fluoro-2-((1R,2R)-2-phenyl-cyclopropanecarbonyl)-1,2,3,4-tetrahydro-isoquinolin-8-yl]-4-(2,2,2-trifluoro-ethoxy)-phenyl]-acetic acid]	1.9 nM
COc1ccc(CC(=O)O)cc1-c1ccc(C)c2c1CN(C(=O)OCc1ccccc1)CC2 [Example 155, 8-(5-Carboxymethyl-2-methoxy-phenyl)-5-methyl-3,4-dihydro-1H-isoquinoline-2-carboxylic acid benzyl ester]	46.8 nM
Cc1ccc(-c2cc(OCC(=O)O)ccc2Cl)c2c1CCN(C(=O)OCc1ccccc1)C2 [Example 179, 8-(5-Carboxymethoxy-2-chloro-phenyl)-5-methyl-3,4-dihydro-1H-isoquinoline-2-carboxylic acid benzyl ester]	250 nM
CC(C)c1cc(CC(=O)O)ccc1-c1ccc(F)c2c1CN(C(=O)OCc1ccccc1)CC2 [Example 216, 8-(4-Carboxymethyl-2-isopropyl-phenyl)-5-fluoro-3,4-dihydro-1H-isoquinoline-2-carboxylic acid benzyl ester]	19.4 nM
COc1ccc(CC(=O)O)cc1-c1ccc(F)c2c1CN(C(=O)CCn1cc(C)c3ccccc31)CC2 [Example 57, (3-{5-Fluoro-2-[3-(3-methyl-indol-1-yl)-propionyl]-1,2,3,4-tetrahydro-isoquinolin-8-yl}-4-methoxy-phenyl)-acetic acid]	16.2 nM
COc1ccc(CC(=O)O)cc1-c1ccc(F)c2c1CN(C(=O)[C@@H]1C[C@H]1c1ccc(Cl)cc1Cl)CC2 (racemic) [Example 98, (±)-(3-{2-[trans-2-(2,4-Dichloro-phenyl)-cyclopropanecarbonyl]-5-fluoro-1,2,3,4-tetrahydro-isoquinolin-8-yl}-4-methoxy-phenyl)-acetic acid]	10.1 nM
COc1ccc(CC(=O)O)cc1-c1ccc(Cl)c2c1CN(C(=O)CCCc1ccccc1F)CC2 [Example 74, (3-{5-Chloro-2-[4-(2-fluoro-phenyl)-butyryl]-1,2,3,4-tetrahydro-isoquinolin-8-yl}-4-methoxy-phenyl)-acetic acid]	10.5 nM
CCOc1ccc(CC(=O)O)cc1-c1ccc(F)c2c1CN(C(=O)[C@@H]1C[C@H]1c1ccccc1)CC2 [Example 220, {4-Ethoxy-3-[5-fluoro-2-((1R,2R)-2-phenyl-cyclopropanecarbonyl)-1,2,3,4-tetrahydro-isoquinolin-8-yl]-phenyl}-acetic acid]	13.5 nM
CC(C)Oc1cc(CC(=O)O)ccc1-c1ccc(F)c2c1CN(C(=O)CC1CCOc3ccccc31)CC2 (racemic) [Example 353]	1.2 nM
COc1ccc(CC(=O)O)cc1-c1ccc(F)c2c1CN(C(=O)CC(C)C1CC1)CC2 (racemic) [Example 245]	399 nM
CCOc1cc(CC(=O)O)ccc1-c1ccc(F)c2c1CN(C(=O)CCc1ccccn1)CC2 [Example 349, {3-Ethoxy-4-[5-fluoro-2-(3-pyridin-2-yl-propionyl)-1,2,3,4-tetrahydro-isoquinolin-8-yl]-phenyl}-acetic acid]	0.5 nM
